Assay results: patent US20190330140A1, “Compound for Use in Enzymatic Reaction and Mass Spectrometry Method” (HITACHI HIGH-TECHNOLOGIES CORPORATION, priority 2016, published 2019)

Test system: galactosidase
Assay: enzymatic reaction with galactosidase, product measured
Type: biochemical
Details: 0.5 ng/ml galactosidase, 1 hour
Protocol: When a solution of 20 ng/ml of HVG and 0.5 ng/ml of galactosidase in a 10 mmol/L phosphate buffer (pH 7.3) containing 5% (v/v) of methanol and 1 mmol of magnesium chloride was prepared and was reacted at 37° C. for 1 hour, 0.532 ng/ml of HV was then produced. […] It was found from this example that HVG has the same level of enzymatic susceptibility as p-nitrophenylgalactoside which is known as a good substrate for galactosidases.

O=[N+]([O-])c1ccc(O[C@@H]2O[C@H](CO)[C@H](O)[C@H](O)[C@H]2O)cc1 [p-Nitrophenyl galactoside]
p-nitrophenol produced from substrate (substrate in place of HVG, phosphate buffer pH 7.3, 37° C.): 0.532 ng/mL

COc1ccc(CCN(C)CCCC(C(=O)Nc2ccc(O[C@@H]3OC(CO)[C@H](O)[C@@H](O)C3O)cc2)(c2ccc(OC)c(OC)c2)C(C)C)cc1OC (some centres unmarked) [HVG]
HV produced from substrate (20 ng/ml HVG, 10 mmol/L phosphate buffer pH 7.3, 5% methanol, MgCl2, 37° C.): 0.532 ng/mL
